Test results: paper PMC10439028, “SGLT5 is the renal transporter for 1,5-anhydroglucitol, a major player in two rare forms of neutropenia” (Cellular and Molecular Life Sciences: CMLS, 2023)
Entries after “also recorded” stand apart in the source; their conditions may differ.

Legend:
[1] = target: T1, human SGLT4 (Homo sapiens, UniProt Q2M3M2); assay: Radioactive uptake assay (saturation kinetics) in HEK293T cells stably overexpressing human SGLT4; format: cell-based
T1 construct: expressed in transfected cells
T1 sequence (Q2M3M2 1-681): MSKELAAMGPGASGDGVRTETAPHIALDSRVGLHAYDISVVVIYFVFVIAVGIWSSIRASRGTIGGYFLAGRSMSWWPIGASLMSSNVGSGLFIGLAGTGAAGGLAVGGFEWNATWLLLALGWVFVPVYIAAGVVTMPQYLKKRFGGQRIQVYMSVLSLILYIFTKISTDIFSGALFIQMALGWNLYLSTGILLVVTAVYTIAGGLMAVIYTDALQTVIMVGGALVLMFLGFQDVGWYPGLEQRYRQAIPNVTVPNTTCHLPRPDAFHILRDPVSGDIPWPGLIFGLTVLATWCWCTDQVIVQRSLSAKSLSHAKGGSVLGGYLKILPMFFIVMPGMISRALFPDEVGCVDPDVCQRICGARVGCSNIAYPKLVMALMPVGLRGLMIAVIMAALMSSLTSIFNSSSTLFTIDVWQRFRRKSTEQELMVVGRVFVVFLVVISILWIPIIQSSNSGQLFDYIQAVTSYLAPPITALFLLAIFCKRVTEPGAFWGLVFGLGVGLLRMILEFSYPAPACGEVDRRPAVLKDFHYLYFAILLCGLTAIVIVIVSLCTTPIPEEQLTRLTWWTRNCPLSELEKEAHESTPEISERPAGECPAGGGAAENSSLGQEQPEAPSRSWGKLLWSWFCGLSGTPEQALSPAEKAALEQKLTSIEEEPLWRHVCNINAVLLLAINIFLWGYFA
Description: This assay was used to study (1) the transport of 1,5-AG or mannose by the HEK293T model cell lines that stably overexpressed the various transporters or by the transiently transfected HEK293T cells using JetPEI® as a transfection agent prepared as described above and (2) the substrate specificity of each transporter.
(§1) For a typical transporter experiment we proceeded as follows. […] To minimize cell loss during the various washing steps in the radioactive uptake experiments, the wells where the cells were seeded were previously coated with poly- D-lysine, which improved their adhesion to the plastic surface of the wells. For this, each well of the 24-well plates was treated with 200 µl of a 0.01% poly-L-lysine solution for 10 min, washed 3 times with 1 ml of sterilized water and left to dry for 2 h. Only then could the 24-well plates be seeded with the appropriate cell lines and cultured overnight at 37 °C in 5% CO2.
On day two, the radioactive uptake assay could be performed. The cell culture media was removed by aspiration and cells were incubated for 20 min at 37 °C and 5% CO2 with a basal medium (10 mM HEPES, pH 7.4, 1 mM CaCl2, 1 mM MgCl2, 2 mM KCl) containing 140 mM choline chloride to deplete intracellular […] ions. This was subsequently replaced with the uptake medium (basal medium + 140 mM NaCl, 25 μM cytochalasin B, 1 mg/ml BSA) containing either radioactive U-[^14C]-mannose (15,000 cpm/well) or 2-[^3H]-1,5-AG (30,000 cpm/well) and respectively, non-radioactive mannose or 1,5-AG, at the required concentration in the experiment. […]
(§2) Once the uptake medium was added to the cells, the plates were incubated at 37 °C in 5% CO2 during the required time. […] In each experiment, the transport activities were calculated after subtracting a “blank” value, corresponding to the radioactivity in the appropriate control cells (HEK293T cells that were stably or transiently transfected with one of the parent plasmids pEF6/MycHisA, pEF6HisB, pUB82 or pUB83 with no inserted cDNA) that were analyzed in parallel.

[2] = target: T1, human SGLT4; assay: Inhibition of 10 µM radiolabelled mannose transport in HEK293T cells overexpressing human SGLT4; format: cell-based; settings: substrate 10 μM mannose
Experimental: as §1
On day two, the radioactive uptake assay could be performed. The cell culture media was removed by aspiration and cells were incubated for 20 min at 37 °C and 5% CO2 with a basal medium (10 mM HEPES, pH 7.4, 1 mM CaCl2, 1 mM MgCl2, 2 mM KCl) containing 140 mM choline chloride to deplete intracellular […] ions. This was subsequently replaced with the uptake medium (basal medium + 140 mM NaCl, 25 μM cytochalasin B, 1 mg/ml BSA) containing either radioactive U-[^14C]-mannose (15,000 cpm/well) or 2-[^3H]-1,5-AG (30,000 cpm/well) and respectively, non-radioactive mannose or 1,5-AG, at the required concentration in the experiment. Importantly, when measuring the transport of mannose, the uptake media also contained 0.5 mM glucose. This resulted from the need to reduce the background transport of mannose in control HEK293T cells in order to optimize the transport assay for this sugar in our model cell lines. Consequently, after testing various inhibitors (Supplementary Fig. 1), 0.5 mM glucose + 25 µM cytochalasin B appeared as the best combination to decrease efficiently the endogenous transport of mannose in control cells without affecting the transport of mannose in model cell lines overexpressing SGLT4 and SGLT5. Therefore in the radioactive uptake assays for mannose, the uptake medium was: basal uptake medium + 140 mM NaCl, 25 μM cytochalasin B, 0.5 mM glucose and 1 mg/ml BSA to which we added U-[^12C + ^14C]-mannose as described above.
as §2
The transport experiments to study the specificity of SGLT4 or SGLT5, were performed in the presence of 10 µM U-[^14C + ^12C]-mannose (for SGLT4) or 2-[^3H + ^1H]-1,5-AG (for SGLT5) and increasing concentrations of various sugars tested. The transport experiments to study the inhibition of empagliflozin, dapagliflozin or remogliflozin, on the transport of 1,5-AG by SGLT5 or its variants were performed in the presence of 10 µM 2-[^3H + ^1H]-1,5-AG and increasing concentrations of the various gliflozins tested.

Row | Structure (SMILES) | transport of 1,5-AG by human SGLT4 ([1]; concentrations in the physiological range) | hSGLT4 inhibition with 10 mM inhibitor ([2]; 10 mM inhibitor) | SGLT4 better than SGLT5 to transport mannose ([1]; assuming similar expression of the transporters in the cell lines) | hSGLT4 Vmax ([1]; transport of the labelled substrate, Fig. 2B) [pmol/min/10^5 cells] | IC50 ([2]; Fig. 3C, read-out: hSGLT4 IC50) [µM]
1 | OC[C@H]1OC[C@H](O)[C@@H](O)[C@@H]1O [1,5-AG, 1,5-anhydroglucitol] | does not transport; also recorded: undetectable | no inhibition | – | – | –
2 | OC[C@H]1OC(O)[C@@H](O)[C@@H](O)[C@@H]1O (some centres unmarked) [Mannose, mannose] | – | – | approximately tenfold better | 16.6 ± 0.5 | 125
